Results as given in US20240261258A1, “Presurgical Perineural Administration of Resiniferatoxin For Reduction of Post-Operative Pain” (Sorrento Therapeutics, Inc., priority 2021, published 2024).
Marks after values point to notes of the source that are not given here.

Tested on: left stifle joint
Assay: Necropsy and histopathology of stifle joints
Type: in vivo, dog
Settings: for Bone remodeling with increased osteoblasts/osteoclasts: Mild, number of dogs / Bone remodeling with increased osteoblasts/osteoclasts: Minimal, number of dogs / Bone remodeling with increased osteoblasts/osteoclasts: Moderate, number of dogs / Bone remodeling with increased osteoblasts/osteoclasts: number of dogs with the finding / Collagen (picosirius red stain): number of dogs with the finding / Non-epiphyseal cartilage: Mild, number of dogs / Non-epiphyseal cartilage: Minimal, number of dogs / Non-epiphyseal cartilage: Moderate, number of dogs / Non-epiphyseal cartilage: number of dogs with the finding / Screw holes with intraluminal hemorrhage: Mild, number of dogs / Screw holes with intraluminal hemorrhage: number of dogs with the finding / Soft tissue mononuclear inflammation: Mild, number of dogs / Soft tissue mononuclear inflammation: Minimal, number of dogs / Soft tissue mononuclear inflammation: number of dogs with the finding / Synovial hypertrophy/hyperplasia: Mild, number of dogs / Synovial hypertrophy/hyperplasia: Minimal, number of dogs / Synovial hypertrophy/hyperplasia: Moderate, number of dogs / Synovial hypertrophy/hyperplasia: number of dogs with the finding: left stifle joint, 4 examined; for Average collagen score left leg (picosirius red): operated left stifle; for Average collagen score right leg (picosirius red): un-operated right stifle
Description: These findings were confirmed during necropsy.
It was characterized by plump, variably piled synoviocytes with slightly more prominent fibrillary projections into the synovial spaces as compared to the control right stifle joints. Some control un-operated right stifle joints also occasionally had minimal synovial hypertrophy/hyperplasia typified by slightly plump, variably piled synoviocytes, but lacked increased fibrillary projections.
Soft tissue mononuclear inflammation was seen as small collections of lymphocytes, macrophages, and/or plasma cells or increased numbers of diffusely scattered mononuclear cells. The inflammation was commonly seen in the synovial lining subjacent to the synoviocytes, or in soft tissues that remained attached to the bone/joint. The incidences and average severity grades were not remarkably different between left joint groups.
Bone remodeling with increased osteoblasts/osteoclasts was characterized by irregular areas of bone/callous formation. Some areas of bone remodeling had increased cellularity due to increased numbers of osteoblasts and osteoclasts that outlined bone.
Presence of cartilage on the operated sides was presumptively interpreted to represent areas of residual cartilage in the physis which had been shifted/transposed by the TPLO surgery, and/or new cartilage formation. The amount of cartilage in each section was subjectively graded using the H&E and toluidine blue stains. […] Any differences could also be influenced by differences in physeal cartilage amounts/extent of physeal closure between dogs, and by plane-of-section variabilities.
A collagen score for each of the stifle joint slides stained with picosirius red was assigned based on the qualitative estimate of collagen present on the slide. The average of the three slides per joint was recorded. An overall collagen score for the left and right stifle joints for each group was calculated by averaging the individual collagen scores. […] The average collagen scores of groups 1-4 for the operated left legs were slightly higher than the corresponding un-operated right leg group average collagen scores. Higher collagen in the operated legs seemed consistent with post-surgical healing processes.

## C=C(C)[C@]12C[C@@H](C)[C@@]34O[C@](Cc5ccccc5)(O[C@@H]1[C@@H]3C=C(COC(=O)Cc1ccc(O)c(OC)c1)C[C@]1(O)C(=O)C(C)=C[C@@H]41)O2 [RTX, resiniferatoxin]
All RTX groups, day 56
  Microscopic changes in the left stifle joints: No microscopic changes in the left stifle joints suggestive of RTX-related toxicity
All stifles, confirmed during necropsy
  Callus at removal of the TPLO plate: normal callus
Group 1 High (25 μg)
  Bone remodeling with increased osteoblasts/osteoclasts: Mild, number of dogs: 2
  Bone remodeling with increased osteoblasts/osteoclasts: Minimal, number of dogs: 2
  Bone remodeling with increased osteoblasts/osteoclasts: Moderate, number of dogs: 0
  Bone remodeling with increased osteoblasts/osteoclasts: number of dogs with the finding: (4)
  Collagen (picosirius red stain): number of dogs with the finding: (4)
  Non-epiphyseal cartilage: Mild, number of dogs: 1
  Non-epiphyseal cartilage: Minimal, number of dogs: 1
  Non-epiphyseal cartilage: Moderate, number of dogs: 2
  Non-epiphyseal cartilage: number of dogs with the finding: (4)
  Screw holes with intraluminal hemorrhage: Mild, number of dogs: 4
  Screw holes with intraluminal hemorrhage: number of dogs with the finding: (4)
  Soft tissue mononuclear inflammation: Mild, number of dogs: 1
  Soft tissue mononuclear inflammation: Minimal, number of dogs: 3
  Soft tissue mononuclear inflammation: number of dogs with the finding: (4)
  Synovial hypertrophy/hyperplasia: Mild, number of dogs: 4
  Synovial hypertrophy/hyperplasia: Minimal, number of dogs: 0
  Synovial hypertrophy/hyperplasia: Moderate, number of dogs: 0
  Synovial hypertrophy/hyperplasia: number of dogs with the finding: (4)
  Average collagen score left leg (picosirius red): 2.9
  Average collagen score right leg (picosirius red): 2.3
Group 2 Low (6.25 μg)
  Bone remodeling with increased osteoblasts/osteoclasts: Mild, number of dogs: 2
  Bone remodeling with increased osteoblasts/osteoclasts: Minimal, number of dogs: 1
  Bone remodeling with increased osteoblasts/osteoclasts: Moderate, number of dogs: 1
  Bone remodeling with increased osteoblasts/osteoclasts: number of dogs with the finding: (4)^a
  Collagen (picosirius red stain): number of dogs with the finding: (4)^a
  Non-epiphyseal cartilage: Mild, number of dogs: 1
  Non-epiphyseal cartilage: Minimal, number of dogs: 1
  Non-epiphyseal cartilage: Moderate, number of dogs: 2
  Non-epiphyseal cartilage: number of dogs with the finding: (4)^a
  Screw holes with intraluminal hemorrhage: Mild, number of dogs: 4
  Screw holes with intraluminal hemorrhage: number of dogs with the finding: (4)^a
  Soft tissue mononuclear inflammation: Mild, number of dogs: 4
  Soft tissue mononuclear inflammation: Minimal, number of dogs: 0
  Soft tissue mononuclear inflammation: number of dogs with the finding: (4)^a
  Synovial hypertrophy/hyperplasia: Mild, number of dogs: 3
  Synovial hypertrophy/hyperplasia: Minimal, number of dogs: 0
  Synovial hypertrophy/hyperplasia: Moderate, number of dogs: 1
  Synovial hypertrophy/hyperplasia: number of dogs with the finding: (4)^a
  Average collagen score left leg (picosirius red): 2.6
  Average collagen score right leg (picosirius red): 2.3
Group 3 Local (50 μg)
  Bone remodeling with increased osteoblasts/osteoclasts: Mild, number of dogs: 2
  Bone remodeling with increased osteoblasts/osteoclasts: Minimal, number of dogs: 0
  Bone remodeling with increased osteoblasts/osteoclasts: Moderate, number of dogs: 2
  Bone remodeling with increased osteoblasts/osteoclasts: number of dogs with the finding: (4)
  Collagen (picosirius red stain): number of dogs with the finding: (4)
  Non-epiphyseal cartilage: Mild, number of dogs: 2
  Non-epiphyseal cartilage: Minimal, number of dogs: 0
  Non-epiphyseal cartilage: Moderate, number of dogs: 2
  Non-epiphyseal cartilage: number of dogs with the finding: (4)
  Screw holes with intraluminal hemorrhage: Mild, number of dogs: 4
  Screw holes with intraluminal hemorrhage: number of dogs with the finding: (4)
  Soft tissue mononuclear inflammation: Mild, number of dogs: 2
  Soft tissue mononuclear inflammation: Minimal, number of dogs: 2
  Soft tissue mononuclear inflammation: number of dogs with the finding: (4)
  Synovial hypertrophy/hyperplasia: Mild, number of dogs: 3
  Synovial hypertrophy/hyperplasia: Minimal, number of dogs: 0
  Synovial hypertrophy/hyperplasia: Moderate, number of dogs: 1
  Synovial hypertrophy/hyperplasia: number of dogs with the finding: (4)
  Average collagen score left leg (picosirius red): 3.0
  Average collagen score right leg (picosirius red): 2.4
